# Data taken from patent US5162330A, “Dynemicin C antibiotic, its triacetyl derivative and pharmaceutical composition containing same” (Bristol-Myers Squibb Co., priority 1990, dated 1992).
# Read-outs that look alike come from different tables or passages of the source.
# Experiments:
# [1] = system: B16-F10 (murine melanoma) cells; test: In vitro cytotoxicity; type: cell-based; conditions: Mus musculus, 72 hours, 37° C., neutral red, 540 nm
# Protocol: (§1) Dynemicin C and its triacetate derivative were tested for in vitro cytotoxicity against murine and human tumor cell lines. Dynemicin A and its triacetate derivative were used as reference compounds. B16-F10 (murine melanoma) cells were grown to the logarithmic phase in enriched Eagle minimum essential medium (MEM) supplemented with fetal calf serum (FCS, 10%) and kanamycin (60 mcg/ml) and HCT-116 (human colon carcinoma) cells in Maccoy's 5A medium supplemented with FCS (10%), penicillin (100 μ/ml) and streptomycin (100 mcg/ml), and were harvested and inoculated into wells of the 96- or 24-well tissue culture plate with test materials at concentrations of 1.5×10^4, 1.3×10^4, 1.3×10^4, 2.5×10^4 and 3.0×10^4 cells/ml., respectively. They were incubated at 37° C. in a humidified atmosphere of 5% CO2 and 95% air for 72 hours. The cytotoxic activities were determined colorimetrically at 540 nm after staining viable cells with 0.006% neutral red solution.
# C. neoformans IAM4514 = test: In vitro antifungal MIC; type: cell-based, Cryptococcus neoformans
# Protocol: (§2) The antifungal MICs of dynemicin C and its triacetate were determined by an agar dilution method on yeast morphology agar adjusted to pH7.0 with 1/15M phosphate buffer. A 5 μl aliquot of fungal suspension containing 10^6 cells/ml was inoculated onto the surface of the antibiotic-containing agar plates with a multiinoculator.
# [2] = system: Cryptococcus neoformans D49; test: In vitro antifungal MIC; type: cell-based; conditions: pH 7
# Protocol: as §2
# [3] = system: Candida albicans ATCC 38247; test: In vitro antifungal MIC; type: cell-based
# Protocol: as §2
# S. marcescens IPM-16 = test: In vitro antibacterial MIC; type: cell-based; conditions: Serratia marcescens, IPM16, 18 h, pH 7
# Protocol: (§3) The minimum inhibitory concentration (MIC) was determined by a two-fold serial tube dilution method using nutrient agar (pH7, Difco containing 10^5 cfu/ml).
# E. cloacae IPM-12 = test: In vitro antibacterial MIC; type: cell-based; conditions: Enterobacter cloacae
# Protocol: as §3
# P. cepecia No. 651 = test: In vitro antibacterial MIC; type: cell-based; conditions: 18 h, pH 7
# Protocol: as §3
# X. maltophilia No. 661 = test: In vitro antibacterial MIC; type: cell-based; conditions: Stenotrophomonas maltophilia, pH 7, nutrient agar pH7, 32° C., 18 hours
# Protocol: as §3
# P. rettgeri IPM-14 = test: In vitro antibacterial MIC; type: cell-based; conditions: Providencia rettgeri
# Protocol: as §3
# E. faecalis A9808 = test: In vitro antibacterial MIC; type: cell-based; conditions: Enterococcus faecalis, pH 7
# Protocol: as §3
# P. aeruginosa KKA19 = test: In vitro antibacterial MIC; type: cell-based; conditions: Pseudomonas aeruginosa, pH 7, nutrient agar pH7, 32° C., 18 hours
# Protocol: as §3
# M. morganii I510 = test: In vitro antibacterial MIC; type: cell-based; conditions: Morganella morganii, pH 7
# Protocol: as §3
# M. luteus PCI 1001 = test: In vitro antibacterial MIC; type: cell-based; conditions: Micrococcus luteus, PCI1001, pH 7, nutrient agar pH7, 32° C., 18 hours
# Protocol: as §3
# P. aeruginosa A20599 = test: In vitro antibacterial MIC; type: cell-based; conditions: Pseudomonas aeruginosa, pH 7
# Protocol: as §3
# K. pneumoniae PCI 602 = test: In vitro antibacterial MIC; type: cell-based; conditions: Klebsiella pneumoniae
# Protocol: as §3
# P. cepecia A21213 = test: In vitro antibacterial MIC; type: cell-based; conditions: 18 h, pH 7
# Protocol: as §3
# E. coli Juhl A15119 = test: In vitro antibacterial MIC; type: cell-based; conditions: Escherichia coli
# Protocol: as §3
# S. aureus smith = test: In vitro antibacterial MIC; type: cell-based; conditions: Staphylococcus aureus, pH 7
# Protocol: as §3
# E. faecium A24817 = test: In vitro antibacterial MIC; type: cell-based; conditions: Enterococcus faecium, pH 7, nutrient agar pH7, 32° C., 18 hours
# Protocol: as §3
# S. aureus IPM-24 (MRSA) = test: In vitro antibacterial MIC; type: cell-based; conditions: Staphylococcus aureus, 18 h, pH 7
# Protocol: as §3
# E. coli 255 = test: In vitro antibacterial MIC; type: cell-based; conditions: pH 7
# Protocol: as §3
# P. aeruginosa A9843A = test: In vitro antibacterial MIC; type: cell-based; conditions: Pseudomonas aeruginosa, 18 h, pH 7
# Protocol: as §3
# P. aeruginosa IPM-8 = test: In vitro antibacterial MIC; type: cell-based; conditions: Pseudomonas aeruginosa
# Protocol: as §3
# S. aureus A15036 (MRSA) = test: In vitro antibacterial MIC; type: cell-based; conditions: Staphylococcus aureus, 18 h, pH 7
# Protocol: as §3
# X. maltophilia GN12873 = test: In vitro antibacterial MIC; type: cell-based; conditions: Stenotrophomonas maltophilia, pH 7, nutrient agar pH7, 32° C., 18 hours
# Protocol: as §3
# S. marcescens IPM-15 = test: In vitro antibacterial MIC; type: cell-based; conditions: Serratia marcescens
# Protocol: as §3
# P. aeruginosa IPM-9 = test: In vitro antibacterial MIC; type: cell-based; conditions: Pseudomonas aeruginosa
# Protocol: as §3
# P. mirabilis IFO 3849 = test: In vitro antibacterial MIC; type: cell-based; conditions: Proteus mirabilis
# Protocol: as §3
# S. epidermidis 11-1230 = test: In vitro antibacterial MIC; type: cell-based
# Protocol: as §3
# P. vulgaris IPM-13 = test: In vitro antibacterial MIC; type: cell-based; conditions: Proteus vulgaris
# Protocol: as §3
# [4] = system: HCT-116 (human colon carcinoma) cells; test: In vitro cytotoxicity; type: cell-based; conditions: 72 hours, 37° C., neutral red, 540 nm
# Protocol: as §1
# [5] = ATCC38247, pH 7, Candida albicans ATCC 38247, amphotericin resistant strain, yeast morphology agar pH7.0, 28° C., 40 hours, read-out: MIC
# [6] = Cryptococcus neoformans, IAM4514, 40 h, pH 7
# [7] = Cryptococcus neoformans, D49, 40 h
smiles,measurement,setting,value
"COC1=C(C(=O)O)C(C)C23OC24c2cc(OC(C)=O)c5c(c2NC3C#CC=CC#CC14)C(=O)c1c(OC(C)=O)ccc(OC(C)=O)c1C5=O (stereo not shown) [Dynemicin A acetate, reference compound]",IC50,[1],0.7 ng/mL
"CC(=O)N1CCN(c2ccc(OCC3COC(Cn4ccnc4)(c4ccc(Cl)cc4Cl)O3)cc2)CC1 (stereo not shown) [Ketoconazole, reference compound]",MIC,"C. neoformans IAM4514; IAM4514, pH 7, Cryptococcus neoformans IAM 4514, yeast morphology agar pH7.0, 28° C., 40 hours, read-out: MIC",100 ng/mL
same,MIC,"[2]; Cryptococcus neoformans D49, yeast morphology agar pH7.0, 28° C., 40 hours, read-out: MIC",100 ng/mL
same,MIC,[3]; [5],6300 ng/mL
"NCC[C@H](O)C(=O)N[C@@H]1C[C@H](N)[C@@H](O[C@H]2O[C@H](CN)[C@@H](O)[C@H](O)[C@H]2O)[C@H](O)[C@H]1O[C@H]1O[C@H](CO)[C@@H](O)[C@H](N)[C@H]1O [Amikacin, reference compound]",MIC,S. marcescens IPM-16,100000 ng/mL
same,MIC,"E. cloacae IPM-12; IPM12, pH 7, E. cloacae IPM-12, nutrient agar pH7, 32° C., 18 hours, read-out: MIC",25000 ng/mL
same,MIC,P. cepecia No. 651,> 100000 ng/mL
same,MIC,X. maltophilia No. 661,> 100000 ng/mL
same,MIC,"P. rettgeri IPM-14; IPM14, pH 7, P. rettgeri IPM-14, nutrient agar pH7, 32° C., 18 hours, read-out: MIC",12500 ng/mL
same,MIC,"E. faecalis A9808; E. faecalis A9808, nutrient agar pH7, 32° C., 18 hours, read-out: MIC",50000 ng/mL
same,MIC,P. aeruginosa KKA19,3100 ng/mL
same,MIC,"M. morganii I510; M. morganii I510, nutrient agar pH7, 32° C., 18 hours, read-out: MIC",25000 ng/mL
same,MIC,M. luteus PCI 1001,3100 ng/mL
same,MIC,"P. aeruginosa A20599; P. aeruginosa A20599, nutrient agar pH7, 32° C., 18 hours, read-out: MIC",1600 ng/mL
same,MIC,"K. pneumoniae PCI 602; PCI602, pH 7, K. pneumoniae PCI 602, nutrient agar pH7, 32° C., 18 hours, read-out: MIC",1600 ng/mL
same,MIC,P. cepecia A21213,> 100000 ng/mL
same,MIC,"E. coli Juhl A15119; JUHLA15119, pH 7, E. coli Juhl A15119, nutrient agar pH7, 32° C., 18 hours, read-out: MIC",12500 ng/mL
same,MIC,"S. aureus smith; S. aureus smith, two-fold serial dilution, nutrient agar pH7, 32° C., 18 hours, read-out: MIC",1600 ng/mL
same,MIC,E. faecium A24817,100000 ng/mL
same,MIC,S. aureus IPM-24 (MRSA),100000 ng/mL
same,MIC,"E. coli 255; Escherichia coli, E. coli 255, nutrient agar pH7, 32° C., 18 hours, read-out: MIC",6300 ng/mL
same,MIC,P. aeruginosa A9843A,3100 ng/mL
same,MIC,"P. aeruginosa IPM-8; IPM8, pH 7, P. aeruginosa IPM-8, nutrient agar pH7, 32° C., 18 hours, read-out: MIC",6300 ng/mL
same,MIC,S. aureus A15036 (MRSA),3100 ng/mL
same,MIC,X. maltophilia GN12873,> 100000 ng/mL
same,MIC,"S. marcescens IPM-15; IPM15, pH 7, S. marcescens IPM-15, nutrient agar pH7, 32° C., 18 hours, read-out: MIC",12500 ng/mL
same,MIC,"P. aeruginosa IPM-9; IPM9, pH 7, P. aeruginosa IPM-9, nutrient agar pH7, 32° C., 18 hours, read-out: MIC",1600 ng/mL
same,MIC,"P. mirabilis IFO 3849; IFO3849, pH 7, P. mirabilis IFO 3849, nutrient agar pH7, 32° C., 18 hours, read-out: MIC",25000 ng/mL
same,MIC,"S. epidermidis 11-1230; Staphylococcus epidermidis, 111230, pH 7, S. epidermidis 11-1230, nutrient agar pH7, 32° C., 18 hours, read-out: MIC",25000 ng/mL
same,MIC,"P. vulgaris IPM-13; IPM13, pH 7, P. vulgaris IPM-13, nutrient agar pH7, 32° C., 18 hours, read-out: MIC",6300 ng/mL
"COC1=C(C(=O)O)C(C)C23OC24c2cc(O)c5c(c2NC3C#CC=CC#CC14)C(=O)c1c(O)ccc(O)c1C5=O (stereo not shown) [Dynemicin A, reference compound]",MIC,S. marcescens IPM-16,3.2 ng/mL
same,MIC,"E. cloacae IPM-12; IPM12, 18 h, pH 7",1.6 ng/mL
same,MIC,P. cepecia No. 651,0.8 ng/mL
same,MIC,X. maltophilia No. 661,0.8 ng/mL
same,MIC,"P. rettgeri IPM-14; IPM14, 18 h, pH 7",0.8 ng/mL
same,MIC,"E. faecalis A9808; A9808, 18 h",< 0.025 ng/mL
same,MIC,P. aeruginosa KKA19,3.2 ng/mL
same,MIC,"M. morganii I510; I510, 18 h",0.8 ng/mL
same,MIC,M. luteus PCI 1001,< 0.025 ng/mL
same,MIC,"P. aeruginosa A20599; A20599, 18 h",3.2 ng/mL
same,MIC,"K. pneumoniae PCI 602; PCI602, 18 h, pH 7",3.2 ng/mL
same,MIC,P. cepecia A21213,0.8 ng/mL
same,MIC,"E. coli Juhl A15119; JUHLA15119, 18 h, pH 7",3.2 ng/mL
same,MIC,S. aureus smith; 18 h,< 0.025 ng/mL
same,MIC,E. faecium A24817,< 0.025 ng/mL
same,MIC,S. aureus IPM-24 (MRSA),< 0.025 ng/mL
same,MIC,"E. coli 255; Escherichia coli, 255, 18 h",3.2 ng/mL
same,MIC,P. aeruginosa A9843A,1.6 ng/mL
same,MIC,"P. aeruginosa IPM-8; IPM8, 18 h, pH 7",3.2 ng/mL
same,MIC,S. aureus A15036 (MRSA),< 0.025 ng/mL
same,MIC,X. maltophilia GN12873,1.6 ng/mL
same,MIC,"S. marcescens IPM-15; IPM15, 18 h, pH 7",3.2 ng/mL
same,MIC,"P. aeruginosa IPM-9; IPM9, 18 h, pH 7",6.3 ng/mL
same,MIC,"P. mirabilis IFO 3849; IFO3849, 18 h, pH 7",1.6 ng/mL
same,MIC,"S. epidermidis 11-1230; Staphylococcus epidermidis, 111230, 18 h, pH 7",< 0.025 ng/mL
same,MIC,"P. vulgaris IPM-13; IPM13, 18 h, pH 7",0.8 ng/mL
same,IC50,[4],3.2 ng/mL
same,IC50,[1],5.2 ng/mL
same,MIC,C. neoformans IAM4514; [6],200 ng/mL
same,MIC,[2]; [7],200 ng/mL
same,MIC,"[3]; Candida albicans, ATCC38247, 40 h, pH 7",< 3.1 ng/mL
"C[C@@H]1[C@H](O)[C@@H](C)/C=C/C=C/C=C/C=C/C=C/C=C/C=C/[C@H](O[C@@H]2O[C@H](C)[C@@H](O)[C@H](N)[C@@H]2O)C[C@@H]2O[C@](O)(C[C@@H](O)C[C@@H](O)[C@H](O)CC[C@@H](O)C[C@@H](O)CC(=O)O[C@H]1C)C[C@H](O)[C@H]2C(=O)O [Amphotericin B, reference compound]",MIC,C. neoformans IAM4514; [6],400 ng/mL
same,MIC,[2]; [7],200 ng/mL
same,MIC,[3]; [5],50000 ng/mL
